Reference: patent US20170003277A1 (priority 2015, published 2017)
Where “and” joins values, the source holds several entries; their conditions need not be identical. Equal entries are not always repeated. Where two headings read alike, the source gives them in different places.

Tests used:
[1] = system: mouse splenocytes, THP-1 human monocyte cell line, PBMCs from MS patients; details: prior study (ACTRIMS-ECTRIMS 2014, P282); cited from earlier work
[2] = system: THP-1 human monocyte cell line; format: cell-based; details: for Number of genes significantly modulated by Copaxone relative to mannitol: FDR-adjusted p<0.05
Procedure: Prior to treatment cells were passed and plated in a 6-well plate at a concentration of 1.0×10^6 cells/mL. Cells were allowed to recover for four hours after passage (prior to treatment). […] Each sample was analyzed in six replicates. Cells were treated for 6, 12, and 24 hours. Following treatment time cells were lysed using a Qiagen® based lysis kit. Prior to RNA isolation samples were randomized in order to avoid batch effect. Total RNA was isolated using Qiagen® RNeasy kit. RNA quality was assessed by determining the absorbance ratio 260/280 nm as well as electrophoresis bioanalyzer with 260/280 ratio of 1.9-2.1 and RIN of above 9 were deemed acceptable. Gene expression was measured using Affymetrix® U133 plus 2.0 format. Sample processing was executed according to established manufacturer protocols. The scheme in (FIG. 2) illustrates the general experimental outline.
RNA from THP-1 cells was extracted and expression profiled across the entire genome using the Affymetrix Human Genome U133 Plus 2.0 chip, interrogating a total of over 47,000 transcripts. Four batches of Copaxone® and one batch of Probioglat were comparatively tested in six biological replicates each. Key identified genes were independently evaluated for level of gene expression by quantitative Real-Time PCR of samples collected in the same experiments.
mRNA expression levels were compared between GA and control (mannitol) tested with 6 sample replicates for each of 4 batches of GA and for mannitol, using LIMMA (Sim et al., Nat. Biotechnol. 2011) (Methods). […] We chose 6h for initial downstream analysis since this timepoint reflects the greatest impact of treatment. […] Rather, this decrease in number of genes affected from early to later timepoints represents an attribute of the response of the cells to the drug.
To identify differences between branded GA and differently manufactured glatiramoids, differential gene expression analysis was performed to compare directly between profiles induced by branded GA and by the purported generic glatiramoid, Probioglat. The standard R LIMMA bioconductor package was utilized to measure differentially expressed probesets across the entire microarray. To compare GA and Probioglat, comparisons were corrected to compare each treatment relative to mannitol control (i.e., [GA vs mannitol] was compared via LIMMA to [Probioglat vs mannitol]). Probesets were filtered by calls of presence on the chip for the relevant samples in the comparison (to be considered present at a given timepoint, a probeset was required to have on average a call of present or marginal across the relevant samples at that timepoint). Probesets were mapped to genes using the annotation available for the U133 Plus 2.0 chip from Affymetrix. FDR adjusted p values reported for genes represent the lowest FDR adjusted p value for present probesets for that gene.

[3] = cited from earlier work
[4] = 6 hr, FDR p < 1e−5, |FC| >= 1.3
[5] = 6 hr, FDR p < 1e−5, |FC| >= 1.5
[6] = 6 hr, nominal p < 0.05, vs mannitol
[7] = 12 hr, FDR p < 1e−5, |FC| >= 1.3
[8] = 12 hr, FDR p < 1e−5, |FC| >= 1.5
[9] = 24 hr, FDR p < 1e−5, |FC| >= 1.3
[10] = 24 hr, FDR p < 1e−5, |FC| >= 1.5

glatiramer acetate [Copaxone®]
Genes modulated by Copaxone in both mouse splenocyte and THP-1 systems [1]: 1,378
Genes modulated by Copaxone only in THP-1 cells [1]: 2,121
Genes modulated by Copaxone only in splenocytes [1]: 6,691
raw.FC 202434_s_at CYP1B1 [2]: 2.203
raw.FC 202435_s_at CYP1B1 [2]: 1.96
raw.FC 202436_s_at CYP1B1 [2]: 2.027
raw.FC 202437_s_at CYP1B1 [2]: 1.809
IL1RN fold change (FC), all present probesets ([2]; 6h, GA vs mannitol, listed as GA): 1.43 and 1.35 and 1.26
Number of genes significantly modulated by Copaxone relative to mannitol ([2]; 6 hour): 6,890
IL10 fold change (FC) ([2]; 6 hour, GA vs mannitol): 1.52
Number of genes Down-regulated by GA ([2]; 6 hr, FDR p < 0.05): 4066
Number of genes Up-regulated by GA ([2]; 6 hr, FDR p < 0.05): 2824
Number of genes Down-regulated by GA [2, 4]: 508
Number of genes Up-regulated by GA [2, 4]: 557
Number of genes Down-regulated by GA [2, 5]: 119
Number of genes Up-regulated by GA [2, 5]: 257
Number of genes Down-regulated by GA [2, 6]: 4909
Number of genes Up-regulated by GA [2, 6]: 3511
Number of genes significantly modulated by Copaxone relative to mannitol ([2]; 12 hours): 3,118
Number of genes Down-regulated by GA ([2]; 12 hr, FDR p < 0.05): 1810
Number of genes Up-regulated by GA ([2]; 12 hr, FDR p < 0.05): 1308
Number of genes Down-regulated by GA [2, 7]: 50
Number of genes Up-regulated by GA [2, 7]: 210
Number of genes Down-regulated by GA [2, 8]: 10
Number of genes Up-regulated by GA [2, 8]: 68
Number of genes Down-regulated by GA ([2]; 12 hr, nominal p < 0.05): 3430
Number of genes Up-regulated by GA ([2]; 12 hr, nominal p < 0.05): 2377
Number of genes significantly modulated by Copaxone relative to mannitol ([2]; 24 hours): 1,791
Number of genes Down-regulated by GA ([2]; 24 hr, FDR p < 0.05): 1185
Number of genes Up-regulated by GA ([2]; 24 hr, FDR p < 0.05): 606
Number of genes Down-regulated by GA [2, 9]: 6
Number of genes Up-regulated by GA [2, 9]: 57
Number of genes Down-regulated by GA [2, 10]: 0
Number of genes Up-regulated by GA [2, 10]: 15
Number of genes Down-regulated by GA ([2]; 24 hr, nominal p < 0.05): 3724
Number of genes Up-regulated by GA ([2]; 24 hr, nominal p < 0.05): 1410
CCL2 expression relative to mannitol control ([2]; THP-1, 6 hours): decreased
CD14 expression versus mannitol control ([2]; THP-1, 6 hours): not modulated
CD14 201743_at Copaxone Expression Value Range Maximum ([2]; THP-1, all Copaxone samples): 9.69
CD14 201743_at Copaxone Expression Value Range Minimum ([2]; THP-1, all Copaxone samples): 9.32
CISH 223377_x_at Copaxone Expression Value Range Maximum ([2]; THP-1, all Copaxone samples): 9.11
CISH 223377_x_at Copaxone Expression Value Range Minimum ([2]; THP-1, all Copaxone samples): 8.86
CISH 223961_s_at Copaxone Expression Value Range Maximum ([2]; THP-1, all Copaxone samples): 7.69
CISH 223961_s_at Copaxone Expression Value Range Minimum ([2]; THP-1, all Copaxone samples): 7.24
ICAM1 202637_s_at Copaxone Expression Value Range Maximum ([2]; THP-1, all Copaxone samples): 8.06
ICAM1 202637_s_at Copaxone Expression Value Range Minimum ([2]; THP-1, all Copaxone samples): 7.44
ICAM1 202638_s_at Copaxone Expression Value Range Maximum ([2]; THP-1, all Copaxone samples): 7.30
ICAM1 202638_s_at Copaxone Expression Value Range Minimum ([2]; THP-1, all Copaxone samples): 6.51
MMP9 203936_s_at Copaxone Expression Value Range Maximum ([2]; THP-1, all Copaxone samples): 9.97
MMP9 203936_s_at Copaxone Expression Value Range Minimum ([2]; THP-1, all Copaxone samples): 9.53
Adverse events leading to discontinuation ([3]; GATE study arm): 5
Effect on annualized relapse rate (ARR) ([3]; GATE study, Copaxone arm (357) vs Placebo (84)): no effect in reducing ARR
